Results from publication PMC13226201 (Frontiers in Pharmacology, 2026).

Biological target: human VMAT2 (Homo sapiens, UniProt Q05940)
Assay: [3H]-α-DHTBZ radioligand binding in vesicles from human VMAT2-transfected HEK293 cells
Conditions: read-out: IC50 [3H]-α-DHTBZ binding

human VMAT2, sequence (Q05940 whole entry): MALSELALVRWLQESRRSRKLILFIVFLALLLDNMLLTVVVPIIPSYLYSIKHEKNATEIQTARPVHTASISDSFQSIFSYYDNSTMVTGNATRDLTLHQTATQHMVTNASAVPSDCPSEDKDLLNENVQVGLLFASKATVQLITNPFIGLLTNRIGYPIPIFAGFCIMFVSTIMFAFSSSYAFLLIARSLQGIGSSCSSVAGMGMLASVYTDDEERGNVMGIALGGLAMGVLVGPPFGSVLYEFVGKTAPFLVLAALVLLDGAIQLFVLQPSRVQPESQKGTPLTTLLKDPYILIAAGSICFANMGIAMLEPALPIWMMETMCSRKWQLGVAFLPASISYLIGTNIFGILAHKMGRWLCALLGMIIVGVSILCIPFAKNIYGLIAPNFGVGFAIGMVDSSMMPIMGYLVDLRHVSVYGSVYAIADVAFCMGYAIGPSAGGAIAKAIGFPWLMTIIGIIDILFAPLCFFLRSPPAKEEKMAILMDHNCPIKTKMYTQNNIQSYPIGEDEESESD

COc1cc2c(cc1OC)C1CC(=O)C(CC(C)C)CN1CC2 (stereo not shown) [TBZ, Tetrabenazine]
IC50: 19.2 nM
